IC50 data for 7 compounds are collected here from ChEMBL document CHEMBL3352172, “Discovery of S-adenosyl-L-homocysteine hydrolase inhibitors based on non-adenosine analogs” (Bioorg Med Chem Lett, 2014).

Broadly, the IC50 is the concentration that gives 50% inhibition.

A value given as a limit tells only on which side of the number the result lay.

Adenosylhomocysteinase, sequence (P23526 whole entry): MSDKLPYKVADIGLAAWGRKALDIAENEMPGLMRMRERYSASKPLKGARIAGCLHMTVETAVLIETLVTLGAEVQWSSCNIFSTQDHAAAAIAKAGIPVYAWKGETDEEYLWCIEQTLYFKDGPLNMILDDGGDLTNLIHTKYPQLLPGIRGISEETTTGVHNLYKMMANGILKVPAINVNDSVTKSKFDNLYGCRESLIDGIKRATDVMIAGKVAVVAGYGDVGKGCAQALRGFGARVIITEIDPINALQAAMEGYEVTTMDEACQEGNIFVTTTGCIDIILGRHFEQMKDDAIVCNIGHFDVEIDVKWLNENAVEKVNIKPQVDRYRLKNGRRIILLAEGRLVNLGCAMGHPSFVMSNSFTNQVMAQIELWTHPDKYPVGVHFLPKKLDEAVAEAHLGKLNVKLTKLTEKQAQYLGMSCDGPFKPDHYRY

The assay has as its target Adenosylhomocysteinase (Homo sapiens, UniProt P23526). Briefly: Inhibition of human recombinant S-adenosyl-L-homocysteine hydrolase assessed as AdoHcy hydrolysis activity by HPLC analysis.
Take `O=C(CN(CC(=O)N1CCC(c2ccccc2)CC1)c1cc(Cl)ccc1Oc1ccc(Cl)cc1)NCCN1CCCC1`: the IC50 stood at 0.97 µM.

Turning to `O=C(CN(CC(=O)NC1Cc2ccccc2C1)c1cc(Cl)ccc1Oc1ccc(Cl)cc1)NCCN1CCCC1`, the IC50 worked out at 11.4 µM.

As for `O=C(CN(CC(=O)N1Cc2ccccc2C1)c1cc(Cl)ccc1Oc1ccc(Cl)cc1)NCCN1CCCC1`, the IC50 is above 100 µM.

For the compound `O=C(CN(CC(=O)N1CCc2ccccc2C1)c1cc(Cl)ccc1Oc1ccc(Cl)cc1)NCCN1CCCC1`, the IC50 stood at 17 µM.

On to `CN(C(=O)CN(CC(=O)NCCN1CCCC1)c1cc(Cl)ccc1Oc1ccc(Cl)cc1)C1CCNCC1`, for which the IC50 was above 100 µM.

Regarding `CN(C(=O)CN(CC(=O)NC1CCCNC1)c1cc(Cl)ccc1Oc1ccc(Cl)cc1)C1Cc2ccccc2C1` (configuration not stated), the IC50 was 1.2 µM.

`CN(C(=O)CN(CC(=O)NC1CCNC1)c1cc(Cl)ccc1Oc1ccc(Cl)cc1)C1Cc2ccccc2C1` (configuration not stated): the concentration for half-maximal inhibition (IC50) stood at 1.5 µM.
